Measured values from ChEMBL document CHEMBL5214883, “Comprehensive review for anticancer hybridized multitargeting HDAC inhibitors” (Eur J Med Chem, 2021).
Values belong to the compound of their own block, whether it stands above or below them.

Legend:
Tubulin = test: Inhibition of tubulin polymerization (unknown origin) incubated for 15 mins in presence of GTP by fluorescence-based tubulin polymerization assay kit; assay type: protein-complex assay, Homo sapiens
Histone deacetylase 1 [1] = molecular target: T1, Histone deacetylase 1 (Homo sapiens, UniProt Q13547); test: Inhibition of HDAC1 (unknown origin)
T1 sequence (Q13547 whole entry): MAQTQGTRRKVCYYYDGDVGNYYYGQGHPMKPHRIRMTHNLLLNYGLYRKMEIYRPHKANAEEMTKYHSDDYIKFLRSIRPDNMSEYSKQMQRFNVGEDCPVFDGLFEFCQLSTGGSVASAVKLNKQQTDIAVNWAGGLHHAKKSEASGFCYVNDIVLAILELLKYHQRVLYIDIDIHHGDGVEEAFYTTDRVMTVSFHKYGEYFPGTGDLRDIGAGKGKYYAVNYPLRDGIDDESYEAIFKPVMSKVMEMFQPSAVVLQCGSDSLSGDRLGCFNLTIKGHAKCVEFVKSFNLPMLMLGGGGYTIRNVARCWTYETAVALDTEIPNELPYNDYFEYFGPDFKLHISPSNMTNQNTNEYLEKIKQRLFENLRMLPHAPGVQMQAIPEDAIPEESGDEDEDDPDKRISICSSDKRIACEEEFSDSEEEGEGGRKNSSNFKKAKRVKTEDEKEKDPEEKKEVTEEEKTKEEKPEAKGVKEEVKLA

[2] = system: Panel NCI-60 (60 carcinoma cell lines); test: Cytotoxicity against human Panel NCI-60 (60 carcinoma cell lines); assay type: functional, cell-based
Histone deacetylase [3] = test: Inhibition of HDAC (unknown origin); assay type: protein assay, Homo sapiens
Histone deacetylase [4] = test: Inhibition of HDAC (unknown origin) by H4 Hybrid Multi-Mode Microplate Reade; assay type: protein assay, Homo sapiens
Histone deacetylase 1 [5] = molecular target: T1, Histone deacetylase 1; test: Inhibition of human recombinant HDAC1 using Ac-Lys-Tyr-Lys (epsilon-acetyl)-AMC as substrate incubated for 24 hrs by EnVision multilabel plate reader method
PC-3 = test: Antiproliferative activity against human PC-3 cells incubated for 48 hrs by Sulforhodamine B staining method; assay type: functional, cell-based; conditions: PC-3, 48 h
DU-145 = test: Antiproliferative activity against human DU-145 cells incubated for 48 hrs by Sulforhodamine B staining method; assay type: functional, cell-based; conditions: DU-145, 48 h
[6] = molecular target: T2, Epidermal growth factor receptor (Homo sapiens, UniProt P00533); test: Inhibition of EGFR (unknown origin)
T2 sequence (P00533 whole entry): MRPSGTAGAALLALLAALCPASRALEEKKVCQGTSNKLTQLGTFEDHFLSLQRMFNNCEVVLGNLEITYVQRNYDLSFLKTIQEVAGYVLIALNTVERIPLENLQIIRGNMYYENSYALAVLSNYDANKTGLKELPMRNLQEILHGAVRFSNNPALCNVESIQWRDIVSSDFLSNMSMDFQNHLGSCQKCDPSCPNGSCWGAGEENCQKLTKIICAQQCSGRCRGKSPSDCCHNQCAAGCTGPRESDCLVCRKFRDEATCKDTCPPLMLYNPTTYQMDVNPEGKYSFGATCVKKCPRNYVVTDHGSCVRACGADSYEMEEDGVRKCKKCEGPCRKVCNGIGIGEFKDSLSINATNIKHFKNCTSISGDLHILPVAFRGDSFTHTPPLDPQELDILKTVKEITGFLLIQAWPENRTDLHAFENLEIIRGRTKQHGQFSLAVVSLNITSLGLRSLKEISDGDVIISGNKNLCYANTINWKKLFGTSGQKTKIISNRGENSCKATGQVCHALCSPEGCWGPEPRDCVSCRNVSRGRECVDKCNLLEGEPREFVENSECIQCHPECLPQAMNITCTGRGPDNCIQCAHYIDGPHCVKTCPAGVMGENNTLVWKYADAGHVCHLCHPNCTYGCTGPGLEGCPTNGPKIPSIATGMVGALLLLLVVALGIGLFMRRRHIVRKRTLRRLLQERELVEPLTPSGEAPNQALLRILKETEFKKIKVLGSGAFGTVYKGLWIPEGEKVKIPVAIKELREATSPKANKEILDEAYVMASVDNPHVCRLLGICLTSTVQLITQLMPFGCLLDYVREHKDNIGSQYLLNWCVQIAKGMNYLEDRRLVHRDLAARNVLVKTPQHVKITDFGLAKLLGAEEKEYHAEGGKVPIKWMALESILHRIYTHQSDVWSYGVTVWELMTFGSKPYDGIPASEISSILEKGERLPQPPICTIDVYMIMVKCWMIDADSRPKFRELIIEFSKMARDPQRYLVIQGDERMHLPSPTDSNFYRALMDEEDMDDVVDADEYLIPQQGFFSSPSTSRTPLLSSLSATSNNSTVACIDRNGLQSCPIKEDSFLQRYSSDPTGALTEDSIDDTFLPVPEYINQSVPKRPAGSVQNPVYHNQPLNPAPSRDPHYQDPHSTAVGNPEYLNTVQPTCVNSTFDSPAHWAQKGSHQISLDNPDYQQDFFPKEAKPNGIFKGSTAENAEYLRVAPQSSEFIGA

[7] = molecular target: Vascular endothelial growth factor receptor 2 (Homo sapiens, UniProt P35968); test: Inhibition of VEGFR2 (unknown origin)
Sequence of Vascular endothelial growth factor receptor 2 (P35968 whole entry): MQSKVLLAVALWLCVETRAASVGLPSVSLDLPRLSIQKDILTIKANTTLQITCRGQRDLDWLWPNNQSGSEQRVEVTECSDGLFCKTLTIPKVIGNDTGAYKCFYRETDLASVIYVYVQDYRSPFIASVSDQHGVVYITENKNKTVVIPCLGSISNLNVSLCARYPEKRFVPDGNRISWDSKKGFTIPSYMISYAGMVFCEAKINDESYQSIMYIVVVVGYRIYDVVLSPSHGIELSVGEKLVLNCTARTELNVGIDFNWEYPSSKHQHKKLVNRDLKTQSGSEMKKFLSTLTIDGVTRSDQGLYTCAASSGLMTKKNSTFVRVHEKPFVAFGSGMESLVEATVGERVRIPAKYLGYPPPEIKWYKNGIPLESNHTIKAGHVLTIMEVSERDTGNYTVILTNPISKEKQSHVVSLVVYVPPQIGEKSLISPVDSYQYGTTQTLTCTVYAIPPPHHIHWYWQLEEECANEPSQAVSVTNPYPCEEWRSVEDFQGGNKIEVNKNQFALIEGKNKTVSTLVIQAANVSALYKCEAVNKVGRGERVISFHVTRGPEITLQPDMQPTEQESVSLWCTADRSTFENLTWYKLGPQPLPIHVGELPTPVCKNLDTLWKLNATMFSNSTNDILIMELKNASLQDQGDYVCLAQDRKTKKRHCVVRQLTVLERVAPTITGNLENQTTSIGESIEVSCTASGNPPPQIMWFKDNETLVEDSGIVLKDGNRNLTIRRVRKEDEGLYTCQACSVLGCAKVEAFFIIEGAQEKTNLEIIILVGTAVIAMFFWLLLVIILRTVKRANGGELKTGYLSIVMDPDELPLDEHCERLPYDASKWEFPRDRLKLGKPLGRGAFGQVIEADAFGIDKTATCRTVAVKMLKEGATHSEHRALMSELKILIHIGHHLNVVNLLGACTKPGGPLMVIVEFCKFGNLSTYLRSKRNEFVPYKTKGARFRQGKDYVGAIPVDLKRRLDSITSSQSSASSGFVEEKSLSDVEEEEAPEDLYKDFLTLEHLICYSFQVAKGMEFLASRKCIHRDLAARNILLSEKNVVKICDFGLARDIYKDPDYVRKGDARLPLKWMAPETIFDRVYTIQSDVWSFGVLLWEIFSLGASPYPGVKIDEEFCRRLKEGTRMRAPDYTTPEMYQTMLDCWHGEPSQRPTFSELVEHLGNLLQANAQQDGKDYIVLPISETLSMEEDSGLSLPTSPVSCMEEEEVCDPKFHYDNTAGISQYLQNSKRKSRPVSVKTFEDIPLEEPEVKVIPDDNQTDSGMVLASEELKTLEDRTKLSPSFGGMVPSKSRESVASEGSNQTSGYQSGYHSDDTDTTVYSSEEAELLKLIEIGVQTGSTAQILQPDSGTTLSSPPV

Histone deacetylase 1 [8] = molecular target: T1, Histone deacetylase 1; test: Inhibition of HDAC1 in human HeLa cell nuclear extract using Bos-Lys(acetyl)-AMC as substrate preincubated for 5 mins followed by substrate addition incubated for 30 mins; assay type: cell-free
[9] = system: Epidermal growth factor receptor (Homo sapiens), P00533 [UNDEFINED MUTATION]; test: Inhibition of EGFR T790M (unknown origin) at 1 uM incubated for 40 mins in presence of ATP relative to control
Sequence of Epidermal growth factor receptor (Homo sapiens), P00533 [UNDEFINED MUTATION] (P00533 whole entry, looked up, stated change not applied): as the sequence (P00533 whole entry) above

[10] = molecular target: cGMP-specific 3',5'-cyclic phosphodiesterase (Homo sapiens, UniProt O76074); test: Inhibition of PDE5 (unknown origin) incubated for 1.5 hrs by IMAP fluorescence polarization phosphodiesterase evaluation assay
SMMC-7721 = test: Cytotoxicity against human SMMC-7721 cells; assay type: functional, cell-based
[11] = molecular target: T3, Protein deacetylase HDAC6 (Homo sapiens, UniProt Q9UBN7); test: Inhibition of HDAC6 (unknown origin) using fluorogenic substrate incubated for 30 mins by fluorometric drug discovery assay kit method
T3 sequence (Q9UBN7 whole entry): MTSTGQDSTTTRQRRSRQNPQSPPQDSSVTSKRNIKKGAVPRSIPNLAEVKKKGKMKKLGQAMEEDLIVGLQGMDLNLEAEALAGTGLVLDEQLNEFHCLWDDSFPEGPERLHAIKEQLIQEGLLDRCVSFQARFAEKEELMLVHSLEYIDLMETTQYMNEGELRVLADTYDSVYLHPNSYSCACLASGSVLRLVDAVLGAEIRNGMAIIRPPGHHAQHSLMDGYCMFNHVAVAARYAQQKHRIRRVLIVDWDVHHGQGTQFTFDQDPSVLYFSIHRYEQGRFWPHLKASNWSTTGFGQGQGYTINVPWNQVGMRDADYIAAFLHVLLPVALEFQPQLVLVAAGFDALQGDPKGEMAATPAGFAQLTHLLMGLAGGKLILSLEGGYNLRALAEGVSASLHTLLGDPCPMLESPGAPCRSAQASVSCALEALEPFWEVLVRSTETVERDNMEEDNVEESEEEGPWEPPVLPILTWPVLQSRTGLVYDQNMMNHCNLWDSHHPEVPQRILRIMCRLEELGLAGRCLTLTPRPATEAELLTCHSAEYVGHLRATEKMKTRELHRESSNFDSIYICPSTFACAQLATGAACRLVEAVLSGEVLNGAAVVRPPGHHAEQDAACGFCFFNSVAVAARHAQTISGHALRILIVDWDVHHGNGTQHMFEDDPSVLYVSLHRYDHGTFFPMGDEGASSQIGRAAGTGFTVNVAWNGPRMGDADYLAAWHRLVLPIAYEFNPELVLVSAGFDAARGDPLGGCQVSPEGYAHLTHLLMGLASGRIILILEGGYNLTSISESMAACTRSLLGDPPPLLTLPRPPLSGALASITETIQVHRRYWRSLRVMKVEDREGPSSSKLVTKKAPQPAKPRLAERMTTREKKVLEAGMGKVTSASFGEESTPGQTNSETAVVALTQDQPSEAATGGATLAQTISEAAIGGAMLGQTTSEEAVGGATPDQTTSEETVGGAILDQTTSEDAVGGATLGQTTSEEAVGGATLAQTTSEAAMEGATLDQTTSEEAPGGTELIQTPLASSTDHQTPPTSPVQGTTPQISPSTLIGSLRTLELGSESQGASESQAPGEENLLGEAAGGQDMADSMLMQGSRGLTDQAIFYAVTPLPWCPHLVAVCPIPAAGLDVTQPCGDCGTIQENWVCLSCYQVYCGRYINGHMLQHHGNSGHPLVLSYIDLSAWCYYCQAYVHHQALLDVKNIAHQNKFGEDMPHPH

[12] = molecular target: Receptor tyrosine-protein kinase erbB-2 (Homo sapiens, UniProt P04626); test: Inhibition of HER2 (unknown origin) at 10 ug/ml using synthetic biotinylated peptide as substrate by Wallac Victor II 1420 microplate reader method relative to control; conditions: dose 10.0 µg/ml
[13] = molecular target: T2, Epidermal growth factor receptor; test: Inhibition of EGFR wildtype (unknown origin) incubated for 40 mins in presence of ATP
[14] = molecular target: Histone-lysine N-methyltransferase EZH2 (Homo sapiens, UniProt Q15910); test: Inhibition of EZH2 (unknown origin)
Sequence of Histone-lysine N-methyltransferase EZH2 (Q15910 whole entry): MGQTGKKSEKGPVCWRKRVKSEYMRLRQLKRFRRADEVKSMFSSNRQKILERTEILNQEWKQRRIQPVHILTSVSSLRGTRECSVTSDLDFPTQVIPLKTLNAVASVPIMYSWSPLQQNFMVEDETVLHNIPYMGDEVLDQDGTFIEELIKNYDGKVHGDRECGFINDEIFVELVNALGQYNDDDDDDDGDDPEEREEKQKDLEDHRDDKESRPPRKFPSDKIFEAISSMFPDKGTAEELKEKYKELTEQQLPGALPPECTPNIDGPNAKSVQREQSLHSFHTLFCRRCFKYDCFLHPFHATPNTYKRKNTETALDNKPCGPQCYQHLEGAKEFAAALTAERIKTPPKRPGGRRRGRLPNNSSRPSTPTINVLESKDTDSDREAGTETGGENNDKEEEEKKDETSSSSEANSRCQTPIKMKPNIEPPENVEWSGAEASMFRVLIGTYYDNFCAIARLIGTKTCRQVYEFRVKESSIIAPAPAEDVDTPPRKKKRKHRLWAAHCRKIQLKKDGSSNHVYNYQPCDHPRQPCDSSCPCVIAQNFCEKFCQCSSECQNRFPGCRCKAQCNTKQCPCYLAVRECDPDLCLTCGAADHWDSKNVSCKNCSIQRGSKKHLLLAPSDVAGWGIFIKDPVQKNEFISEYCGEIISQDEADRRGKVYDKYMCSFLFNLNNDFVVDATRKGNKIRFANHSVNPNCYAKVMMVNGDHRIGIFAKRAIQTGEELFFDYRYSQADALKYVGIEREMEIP

MCF7 = test: Cytotoxicity against human MCF7 cells; assay type: functional, cell-based

IC50 (Tubulin): 5450 nM
SMILES: C[C@H]1COc2c(N3CCN(C)CC3)c(F)cc3c(=O)c(C(=O)OCc4cn(CCCCCC(=O)NO)nn4)cn1c23

IC50 (Tubulin): 1840 nM
SMILES: C[C@H]1COc2c(N3CCN(C)CC3)c(F)cc3c(=O)c(C(=O)OCc4cn(CCCCCCC(=O)NO)nn4)cn1c23

SMILES: Cn1c(CCCCCCC(=O)NO)nc2cc(N(CCCl)CCCl)ccc21 [TINOSTAMUSTINE]
IC50 (Histone deacetylase 1 [1]): 10 nM
IC50 [2]: 2200 nM

IC50 (Histone deacetylase [3]): 2270 nM
SMILES: CNC(=O)c1cc(Oc2ccc(NC(=O)c3ccc(N)cc3)cc2)ccc1N

IC50 (Histone deacetylase [4]): 61.2 nM
SMILES: O=C(CCCCCN1CC(=O)N2[C@@H](CC3c4ccccc4NC3[C@@H]2c2ccc(Br)cc2)C1=O)NO (stereo partly specified)

IC50 (Histone deacetylase 1 [5]): 150 nM
SMILES: COc1cc2ncnc(Nc3cccc(/C=C/C(=O)NO)c3)c2cc1OCCCN1CCOCC1

IC50 (PC-3): 1860 nM
IC50 (DU-145): 2000 nM
SMILES: CN(C)CCNC(=O)c1cccc2cc3ccccc3nc12

IC50 (DU-145): 790 nM
IC50 [6]: 12 nM
IC50 [7]: > 10000 nM
SMILES: O=C(CCCCCCC(=O)Nc1ccccc1)NO [VORINOSTAT]

IC50 (Histone deacetylase [3]): 8210 nM
SMILES: CNC(=O)c1cc(Oc2ccc(NC(=O)c3ccc4ccccc4c3)cc2)ccc1N

IC50 (Histone deacetylase [3]): 1170 nM
SMILES: CNC(=O)c1cc(Oc2ccc(NC(=O)c3ccc(Cl)c(C(F)(F)F)c3)cc2)ccc1N

IC50 (Tubulin): 6630 nM
SMILES: C[C@H]1COc2c(N3CCN(C)CC3)c(F)cc3c(=O)c(C(=O)OCc4cn(CCCCCCCC(=O)NO)nn4)cn1c23

IC50 (Histone deacetylase 1 [8]): 121 nM
inhibition [9]: 13%
SMILES: COc1cc(NC(=O)CCCCCC(=O)NO)ccc1Nc1nccc(-c2cn(C)c3ccccc23)n1

IC50 (Tubulin): 6680 nM
SMILES: C[C@H]1COc2c(N3CCN(C)CC3)c(F)cc3c(=O)c(C(=O)NCc4cn(CCCCCCCC(=O)NO)nn4)cn1c23

IC50 [10]: 46.2 nM
IC50 (Histone deacetylase [4]): 14.2 nM
SMILES: O=C(CCCCCCN1CC(=O)N2[C@H](CC3c4ccccc4NC3[C@H]2c2ccc(Br)cc2)C1=O)NO (stereo partly specified)

SMILES: CC(C)=CCC/C(C)=C\CC/C(C)=C\CSc1ccccc1C(=O)O
IC50 (SMMC-7721): 66000 nM

IC50 [11]: 860 nM
SMILES: CN(C)c1nc2c(Br)c(Br)c(Br)c(Br)c2n1CCCCCC(=O)NO

inhibition [12]: 64.2%
SMILES: COCCOc1cc2ncnc(Nc3ccc(/C=C/C(=O)NO)cc3)c2cc1OCCOC

IC50 (Histone deacetylase 1 [8]): 85 nM
IC50 [13]: 5900 nM
inhibition [9]: 15%
SMILES: COc1cc(NC(=O)CCCCCCC(=O)NO)ccc1Nc1nccc(-c2cn(C)c3ccccc23)n1

IC50 (Histone deacetylase [3]): 5230 nM
SMILES: CNC(=O)c1cc(Oc2ccc(NC(=O)c3cccnc3)cc2)ccc1N

IC50 [14]: 5780 nM
SMILES: Cc1cc(C)c(CNC(=O)c2cnn(-c3ccccc3)c2C)c(=O)[nH]1

SMILES: COc1cc2ncnc(Nc3ccc(Br)cc3)c2cc1OCCCCCCC(=O)NO
IC50 (MCF7): 880 nM

IC50 (Histone deacetylase 1 [8]): 23 nM
inhibition [9]: 35%
SMILES: Cn1cc(-c2ccnc(Nc3ccc(NC(=O)CCCCCC(=O)NO)cc3)n2)c2ccccc21
